PMC7552967, “Anti-Melanoma Activities of Artemisone and Prenylated Amino-Artemisinins in Combination With Known Anticancer Drugs” (Frontiers in Pharmacology, 2020)

How the values were obtained:
[1] = tested on: HaCat normal keratinocytes; test: LDH release membrane integrity assay, HaCat; conditions: compounds at their IC50 concentrations, 24 h; combinations 1:1; relative to maximum release
Description: In order to determine cell membrane integrity, the CytoTox-ONE™ Homogeneous Membrane Integrity Assay (Promega, Madison, WO, USA) was employed. This fluorometric assay measures the release of LDH from cells with damaged cell membranes. […] The manufacturer’s instructions were followed to determine the fluorescence at an excitation wavelength of 560 nm and an emission wavelength of 590 nm. In order to calculate the percentage cytotoxicity, the average fluorescent values of the background medium were subtracted from all average fluorescent values of the experimental samples and the positive control. Cytotoxicity is expressed as a percentage relative to the positive control, which is assumed to be responsible for 100% LDH release. The fold increase in LDH release was taken as the indication of the selectivity toward melanoma cell membranes, calculated as the […]. All experiments were performed at least in triplicate and independently repeated. Statistical significant differences were calculated with one-way ANOVA.
Results are expressed relative to the untreated control and the maximum release sample, which was set as having 0% and 100% LDH release respectively. The LDH released from the nonmalignant HaCat cells and the A375 melanoma cells was then used to deduce the selectivity of the compounds against melanoma cell membranes.

A375 melanoma cells = test: MTT cell viability assay, A375; format: cell-based, human; conditions: for IC50: Homo sapiens, A-375, MTT, 24 h, combinations 1:1, mean ± SD; for Therapeutic index (TI): IC50 of HaCat cells/IC50 of A375 cells
Description: The human cell lines TK10 (human kidney adenocarcinoma), UACC62 (human melanoma) and MCF7 (human breast adenocarcinoma) were obtained from the National Cancer Institute (NCI) as part of a panel widely studied for drug screening and molecular target identification. […] The nontumorigenic human immortalized keratinocyte (HaCaT) cells were a kind donation by the School of Anatomical Sciences, Faculty of Health Sciences, University of the Witwatersrand, South Africa. […] All reagents were of analytical grade and were obtained from Merck (Darmstadt, Germany) unless stated otherwise. Cells were cultured in Dulbecco’s modified essential medium (DMEM; Hyclone, GE healthcare, South Logan, UT, USA) containing 10% fetal bovine serum (FBS), 1% penicillin/streptomycin, 1% 200 mM L-Glutamine and 1% nonessential amino acids (Lonza, Basel, Switzerland) at 37°C in a humidified atmosphere of 5% CO2. Stock solutions of the compounds were prepared in dimethyl sulfoxide (DMSO). All subsequent dilutions were prepared in serum-free DMEM and vehicle controls were included in all experiments
The growth inhibitory effects of the compounds were tested in the 3-cell line panel consisting of TK10 (renal), UACC62 (melanoma) and MCF7 (breast) cancer cells by Sulforhodamine B (SRB) assay. […] Compounds prepared in DMSO were tested at 0.01–100 µM serial dilutions to establish initial inhibitory concentrations. […] After 24 h exposure to compounds, growth medium was removed, cells rinsed twice with 1 ml of phosphate buffered saline (PBS) and 100 µl fresh serum-free medium containing 5 mg/ml MTT solution was added MTT solution was prepared fresh for each analysis). Cells were then incubated for 4 h at 37°C, after which the MTT was removed and substituted with 100 µl dimethyl sulfoxide (DMSO) to dissolve the formazan crystals for an h at 37°C. After incubation, cell viability was determined using a microplate reader (BioTek®, Vermont, USA) at an excitation wavelength of 560 nm and emission wavelength of 630 nm with DMSO measured as a blank. Cell viability was expressed as a percentage relative to the untreated control, which is assumed to be 100% viable. For a positive control, cells were treated with 0.01% Triton-X 100 (Sigma-Aldrich, St Louis, MO, USA) for a period of 4 h. Using the MTT assay data, IC50 values were calculated using GraphPad Prism 8. Data were normalized to the positive (alleged to be 0% viable) and negative controls (presumed to be 100% viable), followed by the log-transformation of the concentration values. […] A crude therapeutic index (fold decrease in IC50 value) was calculated as the IC50 of the noncancerous cell-line/IC50 of the cancerous cell line. […] Drug interactions were evaluated for synergism, additivity or antagonism using multiple drug effect analysis, based on the median-principle. Cells were treated with the drug combinations for 24 h and analyzed. The CompuSyn (ComboSyn, Inc. NJ, USA) software package was used to generate the median-effect plots and combination index plots. […] All experiments were performed at least in triplicate and repeated independently.
Next, the quantitative colorimetric MTT assay was used to determine in vitro cell viability with A375 (melanoma) and HaCat (nonmalignant keratinocyte) cells. […] The IC50 was used to determine a crude therapeutic index (fold increase or decline in IC50).

| Compound | HaCat (% LDH release) [1] [%] | IC50 (A375 melanoma cells) [µM] | Therapeutic index (TI) (A375 melanoma cells) |
| --- | --- | --- | --- |
| C[C@H]1[C@H](N2CCS(=O)(=O)CC2)O[C@@H]2O[C@@]3(C)CC[C@H]4[C@H](C)CC[C@@H]1[C@@]24OO3 [Artemisone 4, artemisone] | 19 ± 0.79 | 95.7 ± 2.31 | 2.8 |
| CC(C)=CCC/C(C)=C/CC/C(C)=C/CN1CCN([C@@H]2O[C@@H]3O[C@@]4(C)CC[C@H]5[C@H](C)CC[C@@H]([C@H]2C)[C@@]35OO4)CC1 [Farnesylpiperazine-DHA 7, farnesylpiperazine-DHA] | 18 ± 0.67 | 32.6 ± 1.08 | 2.1 |
| C[C@@H]1CC[C@H]2[C@@H](C)C(=O)O[C@@H]3O[C@@]4(C)CC[C@@H]1[C@]32OO4 [Artemisinin 2, artemisinin] | 18 ± 0.84 | 150 ± 3.61 | 2.5 |
| CC(C)=CCC/C(C)=C/CN1CCN([C@@H]2O[C@@H]3O[C@@]4(C)CC[C@H]5[C@H](C)CC[C@@H]([C@H]2C)[C@@]35OO4)CC1 [Geranylpiperazine-DHA 6, geranylpiperazine-DHA] | 17 ± 0.95 | 46.9 ± 0.89 | 2.2 |
